Literature values as cited in patent US6703001B1, “Cosmetic and dermatological light-protective formulations containing triazine derivatives one or several esters of branched-chain carboxylic acids and branched-chain alcohols” (Beiersdorf AG, priority 1998, dated 2004).

CCCCC(CC)COC(=O)c1ccc(Nc2nc(Nc3ccc(C(=O)OCC(CC)CCCC)cc3)nc(Nc3ccc(C(=O)OCC(CC)CCCC)cc3)n2)cc1 (stereo not drawn) [UVINUL7 T 150, tris(2-ethylhexyl) 4,4′,4″-(1,3,5-triazine-2,4,6-triyltriimino)trisbenzoate]
corresponding dissolved, and therefore active, UV filter substance (corresponds to the about 15% by weight solubility in known solvents): 1-1.5 % by weight
maximum amount of the filter that known solvents can dissolve (known solvents for this UVB filter (lipids)): about 15 % by weight
solubility in lipids (in words) (lipids): poor solubility in lipids
